According to publication PMC12670160, “A drug-repurposing screen of FDA- and EMA-approved drugs identifies two NF-κB inhibitors active against eumycetoma” (Journal of Antimicrobial Chemotherapy, 2025):
In brackets after ≈: the same amount, converted by molar mass. Entries after “also recorded” stand apart in the source; their conditions may differ. Structures can show the parent of a compound that is named as a salt.

Assays:
[1] = test system: M. mycetomatis strain mm55; assay: IC50 and MIC determination, CellTiter-Glo, strain mm55; type: cell-based, Madurella mycetomatis; details: Madurella mycetomatis; for IC50: concentration inhibiting 50% of fungal hyphae growth; for MIC: concentration with complete growth inhibition
Rhodnius prolixus = test system: Rhodnius prolixus; parameters: method as in PMID 30233391; details: insect vector Rhodnius prolixus; cited from earlier work
[2] = test system: M. mycetomatis MM55-infected G. mellonella larvae; assay: Therapeutic efficacy in M. mycetomatis-infected G. mellonella larvae (survival, log-rank); type: in vivo, Galleria mellonella; details: 20 µL of 20 µM at 4, 28 and 52 h post infection; 10 days
Protocol: (§1) For in vivo experiments, sixth-week instar G. mellonella larvae were purchased from Blue-Lagoon, Maassluis, The Netherlands. The larvae were raised and kept in the dark at room temperature. Larvae without any discoloration and weighing around 500 mg were selected for experiments.
The wet weight was determined and 10 mL of PBS per gram of mycelia was added. The suspension was then sonicated for 2 min to achieve a particle size of 10 µm. The fungal suspension (4 mg/40 µL) was injected into the last left pro-leg of a healthy G. mellonella larva with an insulin 29G U-100 needle to reach a final inoculum of 4 mg/larva. Larvae were placed in Petri dishes containing Whatman paper in a 37°C incubator.
A control group was also included in which M. mycetomatis-infected larvae were treated with PBS or with 1 mg/kg amphotericin B (Fungizone, Bristol Myers Squibb, Utrecht, The Netherlands). […] The treatment was repeated at 28 h post infection and 52 h post infection via different prolegs. The infection was monitored for 10 days.
To compare the survival rates between PBS treatment control and the different experimental groups a log-rank test was performed. All data were processed and performed in GraphPad Prism 10.

M. mycetomatis strain I1 = assay: IC50 and MIC determination, CellTiter-Glo, strain I1; type: cell-based, Madurella mycetomatis; details: Madurella mycetomatis, I1
[3] = test system: healthy uninfected G. mellonella larvae; details: 20 µL of 20 µM injected
Protocol: as §1
To determine the toxicity, 15 healthy uninfected larvae were injected with 20 µL of 20 µM compound as previously described.[16] […] As a control, a separate group of larvae were injected with 20 µL of PBS. Larvae were housed in Petri dishes with Whatman paper at 37°C in the dark. Survival was monitored for 10 days.

[4] = test system: vancomycin-resistant Staphylococcus aureus strains; details: cited from earlier work
M. mycetomatis [5] = assay: In vitro susceptibility, averages over M. mycetomatis isolates (average metabolic activity at 2 µM, mean MIC); type: cell-based; details: Madurella mycetomatis, 96 h, 4 days at 37°C, CellTiter-Glo, average of 3 isolates, 20% or below = inhibition
M. mycetomatis strain P1 = assay: IC50 and MIC determination, CellTiter-Glo, strain P1; type: cell-based, Madurella mycetomatis; details: Madurella mycetomatis, P1
M. mycetomatis [6] = test system: M. mycetomatis; parameters: method as in PMID 34209118; details: in vitro; cited from earlier work
[7] = test system: M. mycetomatis-infected G. mellonella larvae; details: M. mycetomatis-infected G. mellonella larvae; cited from earlier work
eumycetoma = details: cited from earlier work
M. mycetomatis [8] = test system: M. mycetomatis; parameters: method as in PMID 35398930, PMID 15793113, PMID 36005544, PMID 34181477, PMID 22964246; details: against M. mycetomatis; cited from earlier work
[9] = test system: M. mycetomatis mouse model; parameters: method as in PMID 26150103; details: cited from earlier work
[10] = test system: primary human neutrophils exposed to C. albicans; parameters: method as in PMID 19609651; details: cited from earlier work

Row | Compound | IC50 [1] [µM] | MIC [1] [µM] | IC50 (M. mycetomatis strain I1) [µM] | MIC (M. mycetomatis strain I1) [µM] | activity at 2 µM (M. mycetomatis [5]) [%] | IC50 (M. mycetomatis strain P1) [µM] | MIC (M. mycetomatis strain P1) [µM] | further results
1 | O=C(Nc1cc(C(F)(F)F)cc(C(F)(F)F)c1)c1cc(Cl)ccc1O [IKK2 inhibitor V (IMD-0354), IMD-0354] | 1.76 | 2 (≈ 0.767 µg/mL) | 1.68 | 2 (≈ 0.767 µg/mL) | 2.3 | 0.17 | 0.25 (≈ 0.0959 µg/mL) | expression of antimicrobial peptides (Rhodnius prolixus): decreased; mortality after Trypanosoma cruzi infection (Rhodnius prolixus): reduced mortality; Survival of M. mycetomatis-infected larvae versus PBS [2]: prolonged the survival; also recorded: prolonged larval survival; Toxicity in G. mellonella larvae at 20 µM ([3]; 10 day observation, toxic if more than 20% of larvae died): not toxic; larval survival ([3]; 10 days, uninfected larvae): above 80%; MIC ([4]; Gram-positive vancomycin-resistant Staphylococcus aureus strains): 0.06 µg/mL (≈ 0.156 µM); biofilm formation ([4]; vancomycin-resistant staphylococci): able to inhibit biofilm formation
2 | O=C(Nc1ccc([N+](=O)[O-])cc1Cl)c1cc(Cl)ccc1O [niclosamide] |  |  |  |  |  |  |  | activity against M. mycetomatis (M. mycetomatis [6]): active
3 | CCC(C)n1ncn(-c2ccc(N3CCN(c4ccc(OCC5COC(Cn6cncn6)(c6ccc(Cl)cc6Cl)O5)cc4)CC3)cc2)c1=O (stereo not shown) [Itraconazole hydrochloride] | 1.58 | 2 | 0.78 | 1 | 6.1 | 0.84 | 2 | larval survival [7]: No prolonged larval survival; lesion size or β-glucan levels (eumycetoma; 400 mg/day, first 6 months of treatment): no reduction; cure rate (eumycetoma; itraconazole combined with surgery, clinical trial setting): 80%; MIC50 (M. mycetomatis [8]): 0.06 µg/mL; activity in M. mycetomatis mouse model [9]: lack of activity
4 | Cc1ccc(S(=O)(=O)/C=C/C#N)cc1 [bay117082] |  |  |  |  |  |  |  | chemotaxis, phagocytosis and killing activity of neutrophils [10]: able to reduce
